A short description of data set [1]: log P by shake-flask method. The class given is physicochemical. As to conditions: n-octanol/water, rt (23.5° C.), average of 3 trials, read-out: log P (octanol-water partition coefficient). The method, then:
Determination of log P Value of 3.
The log P (octanol-water partition coefficient) was determined using the shake-flask method. Three determinations were made. A representative procedure is as follows: a 250-mL separatory funnel was charged with a solution of 3 (50.0 mg) in water (50.0 mL) and n-octanol (50.0 mL). The funnel was capped and inverted 100 times. The funnel and contents were left to stand at rt (23.5° C.) for 40 h. Aliquots of both phases were analyzed by UV/VIS (214 nm for the aqueous layer and 218 nm for the octanol layer), and the concentration in each layer was determined using previously generated calibration curves. In the case of the aqueous layer, a 10-fold dilution was necessary prior to measurement. All measurements were run in triplicate. The log P was determined as log ([3]octanol/[3]aqueous), and the average log P value from the 3 trials was −0.87.

For data set [2], the system named is fibrosis associated gene transcripts in lung. The data set can be described thus: RT-PCR of gene transcripts in lungs of 20 Gy thoracic irradiated mice. As to conditions: 100 μM in drinking water continuously from day 80 after 20 Gy. The class given is in vivo, mouse. The method, then:
FIGS. 20A-20D. MMS350 decreases levels of irradiation induced endothelial and alveolar cell specific RNA levels. Endothelial and alveolar cells were isolated from the lungs of irradiated control or MMS350 treated mice at days 0, 29, 150, and 200 after 20 Gy thoracic irradiation. […] RNA was isolated and RT-PCR was performed for gene expression for: FIG. 20A oxidative stress induced promoters; FIG. 20B endothelial and alveolar cell markers; FIG. 20C fibrosis associated genes; and FIG. 20D endothelial cell markers. […]
FIGS. 21A-21C. […] Expression of BD1, BD2, BD3, and BRDT was determined.
Measurement of Levels of Gene Transcripts for Irradiation Inducible Promoters, Growth Factors, Inflammatory Cytokines, Adhesion Molecules microRNA, and Bromodomain Epigenetic Reader Proteins by RT-PCR
RNA was extracted from mouse lung or purified cell populations using the TRIzol reagent (Invitrogen, Carlsbad, Calif.) following the manufacturer's instructions, quantified using a spectrophotometer, and stored at −80° C. […]
Data for each gene were normalized by calculating the differences (ΔCt) from the Ct-GUSB and Ct-Target genes. Subsequently, the relative increase or decrease in expression was calculated by comparing the reference gene with the target gene (ΔΔCt) and using the formula for relative expression (=2^ΔΔCt). […]

Regarding `CC1(C[S+]([O-])CC2(C)COC2)COC1` [compound 3, 3,3′-Sulfinylbis(methylene)bis(3-methyloxetane)], the logP at 40 h in data set [1] is -0.87. In data set [2], the “fibrosis phase mRNA expression” value is recorded as “decreased expression of fibrosis phase mRNA expression”.

The values above are taken from patent US9546144B2, “Bifunctional compounds” (University of Pittsburgh—of the Commonwealth System of …, priority 2011, dated 2017).
